Consider twelve compounds from patent publication US20210255193A1, “LYSINE REACTIVE PROBES AND USES THEREOF” (The Scripps Research Institute, priority 2017, published 2021).

Each structure is given as a SMILES string.

Holding throughout (assay): competitive isoTOP-ABPP
Format in all cases: binding

Assay [1] has as its target T1, DNMT1 DNA (cytosine-5)-methyltransferase 1 (Homo sapiens, UniProt P26358).
T1 construct: isoTOP-ABPP experiments performed in cell lysates (in vitro); endogenous in cells; host or cells: soluble proteome of human cancer cell lines (MDA-MB-231; Ramos and Jurkat also prepared)
The following applies: 50 uM, 231 sol, in vitro. In outline:
(§1)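 Cell lysate (0.5 ml) was pre-treated with fragment, 50 μM for activated esters or 100 μM for guanidinylating agents, versus DMSO, then labeled 1 h at ambient temperature with 0.1 mM STP-alkyne. Light/heavy TEV tags attached by CuAAC; R = DMSO/compound MS1 peak-area ratio, median per lysine.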

Assay [2] addresses T2, NUDT22 Nucleoside diphosphate-linked moiety X motif 22 (Homo sapiens, UniProt Q9BRQ3).
T2 construct: isoTOP-ABPP experiments performed in cell lysates (in vitro); endogenous in cells; host or cells: soluble proteome of human cancer cell lines (MDA-MB-231; Ramos and Jurkat also prepared)
T2 sequence (Q9BRQ3 1-303): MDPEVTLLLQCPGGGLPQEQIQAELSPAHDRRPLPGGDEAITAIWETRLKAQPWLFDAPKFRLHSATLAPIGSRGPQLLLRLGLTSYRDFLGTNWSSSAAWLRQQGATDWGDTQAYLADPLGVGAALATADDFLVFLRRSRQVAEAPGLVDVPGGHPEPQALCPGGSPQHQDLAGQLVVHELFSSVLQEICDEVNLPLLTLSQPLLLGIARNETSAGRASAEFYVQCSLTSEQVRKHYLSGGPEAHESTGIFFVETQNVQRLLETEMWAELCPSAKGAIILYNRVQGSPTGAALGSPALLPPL
The following applies: for isoTOP-ABPP reactivity ratio at lysine Q9BRQ3_K60 / isoTOP-ABPP ratio (R) at liganded lysine Q9BRQ3_K60: 50 uM, in vitro; for isoTOP-ABPP reactivity ratio at lysine Q9BRQ3_K60: 231 sol; for isoTOP-ABPP ratio (R) at liganded lysine Q9BRQ3_K60: sol, 231. In outline:
as §1

The target of assay [3] is T3, SLC25A5 ADP/ATP translocase 2 (Homo sapiens, UniProt P05141).
T3 construct: isoTOP-ABPP experiments performed in cell lysates (in vitro); endogenous in cells; host or cells: MDA-MB-231 soluble lysate
T3 sequence (P05141 1-298): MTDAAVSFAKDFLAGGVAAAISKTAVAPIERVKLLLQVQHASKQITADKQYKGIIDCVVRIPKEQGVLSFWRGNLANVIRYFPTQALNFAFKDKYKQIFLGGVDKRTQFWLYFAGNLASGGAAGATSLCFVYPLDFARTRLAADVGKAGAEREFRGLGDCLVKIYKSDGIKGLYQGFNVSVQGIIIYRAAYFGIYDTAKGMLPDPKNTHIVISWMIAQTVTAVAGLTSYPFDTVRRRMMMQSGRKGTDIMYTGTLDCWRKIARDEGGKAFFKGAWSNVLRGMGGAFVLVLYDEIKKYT
The following applies: for isoTOP-ABPP reactivity ratio at lysine P05141_K23 / isoTOP-ABPP ratio (R) at liganded lysine P05141_K23: 50 uM, in vitro; for isoTOP-ABPP reactivity ratio at lysine P05141_K23: 231 sol; for isoTOP-ABPP ratio (R) at liganded lysine P05141_K23: sol, 231. Put shortly:
as §1

Assay [4] addresses T4, CDK2 Cyclin-dependent kinase 2 (Homo sapiens, UniProt P24941).
T4 construct: isoTOP-ABPP experiments performed in cell lysates (in vitro); endogenous in cells; host or cells: soluble proteome of human cancer cell lines (MDA-MB-231; Ramos and Jurkat also prepared)
The following applies: 50 uM, in vitro, sol, 231. In outline:
as §1

Assay [5] deals with T5, ARL6IP1 ADP-ribosylation factor-like protein 6-interacting (Homo sapiens, UniProt Q15041).
T5 construct: isoTOP-ABPP experiments performed in cell lysates (in vitro); endogenous in cells; host or cells: soluble proteome of human cancer cell lines (MDA-MB-231; Ramos and Jurkat also prepared)
T5 sequence (Q15041 whole entry): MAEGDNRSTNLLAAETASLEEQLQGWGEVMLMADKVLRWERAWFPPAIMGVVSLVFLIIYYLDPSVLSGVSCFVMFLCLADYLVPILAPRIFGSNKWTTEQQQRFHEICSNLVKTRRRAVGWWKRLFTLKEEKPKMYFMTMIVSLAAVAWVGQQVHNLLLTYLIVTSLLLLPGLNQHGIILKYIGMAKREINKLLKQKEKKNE
The following applies: for isoTOP-ABPP ratio (R) at liganded lysine Q15041_K188: 50 uM, in vitro, sol, 231. In outline: as §1

T1 sequence (P26358 whole entry): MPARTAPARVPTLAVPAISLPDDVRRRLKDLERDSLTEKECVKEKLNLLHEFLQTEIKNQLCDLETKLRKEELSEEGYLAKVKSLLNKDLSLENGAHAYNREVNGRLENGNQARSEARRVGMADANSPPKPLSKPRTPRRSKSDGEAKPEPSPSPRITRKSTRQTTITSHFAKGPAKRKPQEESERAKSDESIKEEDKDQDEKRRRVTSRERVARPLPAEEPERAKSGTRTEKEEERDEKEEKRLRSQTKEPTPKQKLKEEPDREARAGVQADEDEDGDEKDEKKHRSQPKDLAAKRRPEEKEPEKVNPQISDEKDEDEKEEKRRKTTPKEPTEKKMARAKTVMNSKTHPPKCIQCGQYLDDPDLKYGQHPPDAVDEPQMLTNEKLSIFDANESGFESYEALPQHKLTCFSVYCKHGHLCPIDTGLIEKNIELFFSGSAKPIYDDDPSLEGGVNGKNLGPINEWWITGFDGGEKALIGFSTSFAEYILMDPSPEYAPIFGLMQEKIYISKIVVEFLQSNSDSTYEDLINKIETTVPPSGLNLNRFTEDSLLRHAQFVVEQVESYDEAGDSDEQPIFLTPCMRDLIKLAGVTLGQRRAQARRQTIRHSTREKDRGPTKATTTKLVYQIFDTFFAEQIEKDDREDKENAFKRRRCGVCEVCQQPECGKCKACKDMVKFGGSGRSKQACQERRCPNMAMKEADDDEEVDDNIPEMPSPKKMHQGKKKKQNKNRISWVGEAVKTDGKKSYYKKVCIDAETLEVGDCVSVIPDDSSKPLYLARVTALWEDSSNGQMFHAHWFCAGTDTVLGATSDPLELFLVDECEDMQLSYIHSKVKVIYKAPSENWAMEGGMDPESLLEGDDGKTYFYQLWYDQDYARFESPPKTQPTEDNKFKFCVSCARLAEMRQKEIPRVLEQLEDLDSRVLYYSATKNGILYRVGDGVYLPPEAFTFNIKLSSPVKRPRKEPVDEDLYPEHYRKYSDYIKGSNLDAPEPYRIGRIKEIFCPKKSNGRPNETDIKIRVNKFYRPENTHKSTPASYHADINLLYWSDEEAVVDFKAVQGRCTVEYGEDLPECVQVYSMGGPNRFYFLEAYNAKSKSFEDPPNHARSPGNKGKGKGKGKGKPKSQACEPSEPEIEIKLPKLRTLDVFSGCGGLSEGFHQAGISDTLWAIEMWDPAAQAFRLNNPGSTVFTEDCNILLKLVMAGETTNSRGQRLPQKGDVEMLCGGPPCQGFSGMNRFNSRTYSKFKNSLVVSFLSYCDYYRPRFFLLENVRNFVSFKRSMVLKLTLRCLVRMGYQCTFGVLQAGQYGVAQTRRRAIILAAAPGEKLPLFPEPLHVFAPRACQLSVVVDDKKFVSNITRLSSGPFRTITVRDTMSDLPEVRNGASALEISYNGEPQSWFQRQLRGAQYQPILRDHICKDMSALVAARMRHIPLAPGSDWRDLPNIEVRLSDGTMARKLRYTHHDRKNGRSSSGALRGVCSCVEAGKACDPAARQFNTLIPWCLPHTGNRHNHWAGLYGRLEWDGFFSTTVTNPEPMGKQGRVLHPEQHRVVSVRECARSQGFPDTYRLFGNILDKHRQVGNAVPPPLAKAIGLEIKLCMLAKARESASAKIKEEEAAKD

In the case of `O=C(Oc1c(F)c(F)c(F)c(F)c1F)c1ccc2ccccc2n1` [fragment 25, Pentafluorophenyl quinoline-2-carboxylate], the “isoTOP-ABPP reactivity ratio at lysine P26358_K45” value in assay [1] was 0.9. Besides, in assay [2], the “isoTOP-ABPP reactivity ratio at lysine Q9BRQ3_K60” value is given as 0.8.
Consider `O=C(CCc1coc2cc(F)ccc2c1=O)Oc1c(F)c(F)c(F)c(F)c1F` [fragment 26, Pentafluorophenyl 3-(7-fluoro-4-oxo-4H-chromen-3-yl)propanoate], for which, in assay [2], the “isoTOP-ABPP reactivity ratio at lysine Q9BRQ3_K60” value amounted to 0.8.
With `O=C(CN1C(=O)c2ccccc2C1=O)Oc1c(F)c(F)c(F)c(F)c1F` [fragment 27, Pentafluorophenyl 2-(1,3-dioxoisoindolin-2-yl)acetate], the “isoTOP-ABPP reactivity ratio at lysine Q9BRQ3_K60” value in assay [2] was 1.2.
With `O=C(Oc1ccc([N+](=O)[O-])cc1[N+](=O)[O-])C(c1ccccc1)c1ccccc1` [fragment 30, 2,4-Dinitrophenyl 2,2-diphenylacetate], the “isoTOP-ABPP reactivity ratio at lysine P05141_K23” value in assay [3] came to 2.2.
Take `O=C(Oc1ccc([N+](=O)[O-])cc1[N+](=O)[O-])c1cc(C(F)(F)F)cc(C(F)(F)F)c1` [fragment 31, 2,4-Dinitrophenyl 3,5-bis(trifluoromethyl)benzoate]: the “isoTOP-ABPP reactivity ratio at lysine P05141_K23” value in assay [3] amounted to 1.5. Also, in assay [2], the “isoTOP-ABPP reactivity ratio at lysine Q9BRQ3_K60” value was 1.1.
Consider `O=C(Oc1ccc([N+](=O)[O-])cc1[N+](=O)[O-])C1CCN(C(=O)OCc2ccccc2)CC1` [fragment 34, 1-Benzyl 4-(2,4-dinitrophenyl) piperidine-1,4-dicarboxylate], for which the “isoTOP-ABPP ratio (R) at liganded lysine P24941_K33” value in assay [4] worked out at 1.0. Moreover, the “isoTOP-ABPP ratio (R) at liganded lysine P05141_K23” value in assay [3] worked out at 1.1.
For the compound `O=C(Oc1ccc([N+](=O)[O-])cc1[N+](=O)[O-])c1ccc2ccccc2n1` [fragment 35, 2,4-Dinitrophenyl quinoline-2-carboxylate], the “isoTOP-ABPP ratio (R) at liganded lysine P24941_K33” value in assay [4] is on record as 1.6. Moreover, in assay [3], the “isoTOP-ABPP ratio (R) at liganded lysine P05141_K23” value is listed as 1.1. Moreover, in assay [5], the “isoTOP-ABPP ratio (R) at liganded lysine Q15041_K188” value came to 1.4. Moreover, the “isoTOP-ABPP ratio (R) at liganded lysine Q9BRQ3_K60” value in assay [2] was 1.1.
For `O=C(CC12CC3CC(CC(C3)C1)C2)Oc1ccc([N+](=O)[O-])cc1[N+](=O)[O-]` [fragment 38, 2,4-Dinitrophenyl 2-(adamantan-1-yl)acetate], the “isoTOP-ABPP ratio (R) at liganded lysine P24941_K33” value in assay [4] turned out to be 0.9. Also, the “isoTOP-ABPP ratio (R) at liganded lysine P05141_K23” value in assay [3] is on record as 1.1.
Consider `O=C(Oc1ccc([N+](=O)[O-])cc1[N+](=O)[O-])c1ccccc1Nc1cccc(C(F)(F)F)c1` [fragment 40, 2,4-Dinitrophenyl 2-((3-(trifluoromethyl)phenyl)amino)benzoate], for which, in assay [4], the “isoTOP-ABPP ratio (R) at liganded lysine P24941_K33” value amounted to 1.0. Besides, the “isoTOP-ABPP ratio (R) at liganded lysine P05141_K23” value in assay [3] was 0.8. In addition, the “isoTOP-ABPP ratio (R) at liganded lysine Q9BRQ3_K60” value in assay [2] came out at 0.9.
For the compound `CC(C)(C)OC(=O)NCCCC(=O)Oc1ccc([N+](=O)[O-])cc1[N+](=O)[O-]` [fragment 41, 2,4-Dinitrophenyl 4-((tert-butoxycarbonyl)amino)butanoate], the “isoTOP-ABPP ratio (R) at liganded lysine P24941_K33” value in assay [4] was found to be 1.0. For the same compound, in assay [3], the “isoTOP-ABPP ratio (R) at liganded lysine P05141_K23” value came to 1.0. For the same compound, the “isoTOP-ABPP ratio (R) at liganded lysine Q15041_K188” value in assay [5] came out at 1.3. Further, the “isoTOP-ABPP ratio (R) at liganded lysine Q9BRQ3_K60” value in assay [2] was found to be 20.0.
For `CC(=O)Oc1ccc([N+](=O)[O-])cc1[N+](=O)[O-]` [fragment 43, 2,4-Dinitrophenyl acetate], the “isoTOP-ABPP ratio (R) at liganded lysine P05141_K23” value in assay [3] stood at 0.9. In assay [5], the “isoTOP-ABPP ratio (R) at liganded lysine Q15041_K188” value is 1.4.
As to `O=C(Oc1c(F)c(F)c(C(F)(F)F)c(F)c1F)c1cc(C(F)(F)F)cc(C(F)(F)F)c1` [fragment 47, 2,3,5,6-Tetrafluoro-4-(trifluoromethyl)phenyl 3,5-bis(trifluoromethyl)benzoate], the “isoTOP-ABPP ratio, lysine P05141_K23” value in assay [3] (50 uM_231_sol_in vitro) is listed as 1.8. Further, the “isoTOP-ABPP ratio, lysine Q15041_K188” value in assay [5] (50 uM_231_sol_in vitro) is on record as 3.5. Also, the “isoTOP-ABPP ratio, lysine Q9BRQ3_K60” value in assay [2] (50 uM_231_sol_in vitro) came out at 1.1.
